Experimental data reported in publication PMC5309245, “Discovery and Characterization of Diazenylaryl Sulfonic Acids as Inhibitors of Viral and Bacterial Neuraminidases” (Frontiers in Microbiology, 2017).

Columns and labels:
[1] = molecular target: influenza virus A/WSN/33 NA-Y155H (Influenza A virus, UniProt P03470, Y139H); format: biochemical, influenza A virus A/WSN/1933 (H1N1)
[2] = molecular target: influenza virus A/WSN/33 NA-N294S (Influenza A virus, UniProt P03470, N279S); format: biochemical, influenza A virus A/WSN/1933 (H1N1)
[3] = molecular target: influenza virus A/WSN/33 NA-H274Y (Influenza A virus, UniProt P03470, H259Y); format: biochemical, influenza A virus A/WSN/1933 (H1N1)
[4] = system: influenza virus A/WSN/33 NA-I427M
[5] = system: influenza virus A/WSN/33 NA-I427Q
[6] = molecular target: influenza virus A/WSN/33 NA-Q136L (Influenza A virus, UniProt P03470, Q120L); format: biochemical, influenza A virus A/WSN/1933 (H1N1)
[7] = molecular target: influenza virus A/WSN/33 NA-I427M (Influenza A virus, UniProt P03470, I411M); details: read-out: IC50, NA-I427M
[8] = molecular target: influenza virus A/WSN/33 NA-I427Q (Influenza A virus, UniProt P03470, I411Q); details: read-out: IC50, NA-I427Q
[9] = molecular target: IAV WSN/33 NA-wt (whole virus) (Influenza A virus, UniProt P03470); assay: biochemical; parameters: species or system influenza A virus A/WSN/1933 (H1N1); details: read-out: IC50, NA-wt

Structure (SMILES)	FC, NA-Y155H [1]	FC, NA-N294S [2]	FC, NA-H274Y [3]	FC, NA-I427M [4]	FC, NA-I427Q [5]	FC, NA-Q136L [6]	IC50 [1] [nM]	IC50 [2] [nM]	IC50 [3] [nM]	IC50 [7] [nM]	IC50 [8] [nM]	IC50 [9] [nM]	IC50 [6] [nM]
Cc1cc(N=Nc2ccc(N=Nc3c(O)c(S(=O)(=O)O)cc4cc(S(=O)(=O)O)ccc34)cc2C)ccc1N=Nc1ccc2cc(S(=O)(=O)O)cc(S(=O)(=O)O)c2c1 [Compound 1, 7-[2-[4-[2-[4-[2-(2-hydroxy-3,6-disulfo-1-naphthalenyl)diazenyl]-2-methylphenyl]diazenyl]-2-methylphenyl]diazenyl]-1,3-naphthalenedisulfonic acid]	1	1	3	2	1	2	–	–	–	–	–	–	–
O=S(=O)(O)c1ccc2c(/N=N/c3ccc(Sc4ccc(/N=N/c5c(O)ccc6cc(S(=O)(=O)O)ccc56)cc4)cc3)c(O)ccc2c1 [Compound 2]	0.2	1	2	1	1	2	–	–	–	–	–	–	–
Cc1ccccc1/N=N/c1ccc(/N=N/c2c(O)ccc3cc(S(=O)(=O)O)cc(S(=O)(=O)O)c23)c(C)c1 [Compound 5]	1	3	3	2	2	2	–	–	–	–	–	–	–
CC(=O)N[C@H]1[C@H]([C@H](O)[C@H](O)CO)OC(C(=O)O)=C[C@@H]1O [DANA, 2,3-dehydro-2-deoxy-N-acetylneuraminic acid, reference compound]	3	3	1	1	–	1	8360 ± 3130	8120 ± 2070	2510 ± 1380	2210 ± 620	12800 ± 750	2440 ± 1080	2330 ± 1320
